According to patent US11918822B2, “Compositions and methods for enhancing the biological response to chemical agents and physical stimuli” (The Research Foundation for the State University of New York, priority 2010, dated 2024):

Tested on: C3H10T1/2 embryonic mesenchymal stem cells
Assay: Adipogenesis of mesenchymal stem cells in adipogenic medium (adiponectin, PPARγ immunoblots, lipid granules)
Type: cell-based
Procedure: C3H10T1/2 embryonic mesenchymal stem cells were maintained in growth medium (α-MEM, 10% FBS, 100 µg/ml penicillin/streptomycin). Cells were plated at a density of 6,000-10,000 cells per cm^2 in collagen-I coated silicone membrane plates and cultured for two days before loading protocols began. Adipogenic medium included 0.1 μM dexamethasone, 5 μg/ml insulin, and in some cases, 50 μM indomethcin. If noted, MSC wee transfected with siRNA (100 nm) in serum-free OptiMEM overnight before replacing the medium. Multi-potential medium contained 50 μg/ml ascorbic acid, 1 μM β-glycerophosphate, 10 nM dexamethasone, nM all trans-retinoic acid, 5 μg/mi insulin, 0.5 mM 3-isobutyl-1-methylxanthine (IBMX).
Low Intensity Vibration (LIV): To deliver LIV to cultured MSC, an amplified loudspeaker generated controlled 90 Hz 0.6 g (where 1.0 g is Earth's gravitational field, or […]) standing wave accelerations/decelerations through the wells of culture dishes. Dishes were removed from the incubator during the loading periods (up to three times per day) and set on the lab-bench (control) or, for LIV, on the loudspeaker.
Western blotting: Details were as in Sen, et al. (Endocrinology 42:6065-6075 (2008)). Antibodies included those directed against active β-catenin (Upstate, Temecula, CA), total […] (BD, Bedford, MA), total-GSK3β Chemicon, Billerica, MA), aP2, PPARγ, adiponectin, COX2, NFATc1 and tubulin (Santa Cruz, CA). Densitometry was determined using NIH ImageJ, 1.37v.
Histochemical Staining: After fixation in 2% formaldehyde, cells were rinsed before staining for cytoplasmic triglyceride droplets with oil-red-O.

## COc1ccc2c(c1)c(CC(=O)O)c(C)n2C(=O)c1ccc(Cl)cc1 [indonethacin]
Added to adipogenic media, without it 7-8 days
  time to adipogenesis (rate of adipogenesis) after addition to adipogenic media: 4 to 5 days

## O=C1NC(=O)C(c2ccccc2[N+](=O)[O-])=C1Nc1ccc(O)c(Cl)c1 [SB415286]
MSC in adipogenic medium
  effect on adipogenesis: prevention of adipogenesis
MSC with siRNA targeting β-catenin (+siCat)
  effect on adipogenesis when β-catenin is knocked down: blocked by targeting β-catenin

B1: DKK1: protein from R & D Systems added at doses known to inhibit Wnt binding Lrp receptors (protein, UniProt O94907 32-266, looked up)
Dickkopf-related protein 1: TLNSVLNSNAIKNLPPPLGGAAGHPGSAVSAAPGILYPGGNKYQTIDNYQPYPCAEDEECGTDEYCASPTRGGDAGVQICLACRKRRKRCMRHAMCCPGNYCKNGICVSSDQNHFRGEIEETITESFGNDHSTLDGYSRRTTLSSKMYHTKGQEGSVCLRSSDCASGLCCARHFWSKICKPVLKEGQVCTKHRRKGSHGLEIFQRCYCGEGLSCRIQKDHHQASNSSRLHTCQRH
Added to LIV treated cultures at doses known to inhibit Wnt binding Lrp receptors
  effect on LIV's ability to inhibit adipogenesis: failed to block LIV's ability to inhibit adipogenesis
